Assay results: patent US11013780B2, “Methods of treating female infertility” (Myovant Sciences GmbH, priority 2016, dated 2021)
Where no end group is shown, it is not given here.

Tests used:
[1] = system: serum LH, FSH, E2; assay: Physiological effects in healthy women, follicular phase (Example 11, Part 1); format: in vivo, human; settings: 9.6 nmol/kg SC
Text: The study population included healthy women, aged 18-35 years, with BMI 18-30 kg/m^2, no medical problems and not taking any medications or hormonal contraception. Three healthy, female subjects were selected and randomized and received a single dose of each of the three study regimens noted below (one regimen per study period). All women were scheduled for three Study D1 Visits (each during the follicular phase of the menstrual cycle). […] The order in which a subject receives one of the three study regimens was determined by a randomization matrix.
The study included a screening visit to collect participants' full medical history and to conduct a general medical examination and blood testing. The three study periods each consisted of three planned study visits per study period (excluding screening and follow-up). Study Day 1 (SD1) Visit of each study period occurred during the follicular phase of the menstrual cycle (days 1-4), and the SD2 and SD3 Visits occurred at 24- and 48-hrs post-dose, respectively (FIG. 14). A follow-up phone call happened 7-10 days post-dose in each study period.
Immediately following dosing, serum LH, FSH, E2 (oestradiol), P (progesterone) and SHBG levels were assessed at 30 minute intervals for up to 14 hours (FIGS. 15A-15C, 16A-16C, 17, 18, 19, 20A, and 20B). These PD variables were also assessed at 24 (Study Day 2) and 48 hours (Study Day 3) post-dose. SHBG changes less rapidly and was measured every 3 hours to reduce blood volume.
Up to 3 mL of blood volume were required for measurement of serum reproductive hormone levels (LH, FSH, E2 and P). Blood samples for serum analysis were collected in plain Vacutainer tubes (Beckton Dickson, Franklin Lakes, N.J., USA), and spun after clotting (˜1 hour at room temperature) for 10 minutes at 3000 rpm. Serum was then stored in a locked freezer at −20° C. until assay of serum reproductive hormone levels.

[2] = system: LH surge; settings: trigger in ART protocol with GnRH antagonist and FSH; cited from earlier work
[3] = in vivo; cited from earlier work

kisspeptin-54: previously shown to be clinically effective as a trigger for oocyte maturation in IVF studies (GTSLSPPPESSGSPQQPGLSAPHSRQIPAPQGAVLVQREKDLPNYNWNSFGLRF; ends and bridges not checked; UniProt Q15726 68-121, looked up)
Time of LH peak after administration [1]: 4 to 6 h
Time by which the LH surge resolved [2]: ≤ 36 h
half-life [3]: 32 min
